{"source": "ChEMBL document CHEMBL3769377", "about": "“A synthesis, in silico, in vitro and in vivo study of thieno[2,3-b]pyridine anticancer analogues” (Medchemcomm, 2015)", "key": {"[1]": {"molecular_target": "Glycogen synthase kinase-3 beta (Homo sapiens) (UniProt P49841)", "experiment": "Inhibition of human recombinant GSK3B assessed as residual activity at 10 uM after 1 hr by qPCR analysis relative to control"}, "[2]": {"molecular_target": "Inhibitor of nuclear factor kappa-B kinase subunit alpha (Homo sapiens) (UniProt O15111)", "experiment": "Inhibition of human recombinant IKKalpha assessed as residual activity at 10 uM after 1 hr by qPCR analysis relative to control"}, "[3]": {"molecular_target": "Mitogen-activated protein kinase kinase kinase 9 (Homo sapiens) (UniProt P80192)", "experiment": "Inhibition of human recombinant MLK1 assessed as residual activity at 10 uM after 1 hr by qPCR analysis relative to control"}, "[4]": {"molecular_target": "Dual specificity mitogen-activated protein kinase kinase 1 (Homo sapiens) (UniProt Q02750)", "sequence (Q02750 whole entry)": "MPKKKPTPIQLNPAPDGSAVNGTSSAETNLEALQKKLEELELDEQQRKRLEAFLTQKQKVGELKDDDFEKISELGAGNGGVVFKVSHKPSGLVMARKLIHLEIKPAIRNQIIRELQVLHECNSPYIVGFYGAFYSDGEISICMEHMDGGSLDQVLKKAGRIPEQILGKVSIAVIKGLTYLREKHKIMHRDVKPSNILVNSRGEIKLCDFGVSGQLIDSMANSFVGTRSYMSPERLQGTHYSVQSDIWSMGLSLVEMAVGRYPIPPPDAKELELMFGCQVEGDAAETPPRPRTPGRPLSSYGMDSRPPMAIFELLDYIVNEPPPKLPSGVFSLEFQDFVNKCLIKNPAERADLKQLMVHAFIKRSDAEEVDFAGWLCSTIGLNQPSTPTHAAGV", "experiment": "Inhibition of human recombinant MEK1 assessed as residual activity at 10 uM after 1 hr by qPCR analysis relative to control"}, "[5]": {"molecular_target": "Bone morphogenetic protein receptor type-2 (Homo sapiens) (UniProt Q13873)", "experiment": "Inhibition of human recombinant BMPR2 assessed as residual activity at 10 uM after 1 hr by qPCR analysis relative to control"}, "[6]": {"molecular_target": "Mitogen-activated protein kinase 9 (Homo sapiens) (UniProt P45984)", "experiment": "Inhibition of human recombinant JNK2 assessed as residual activity at 10 uM after 1 hr by qPCR analysis relative to control"}, "Mus musculus [7]": {"tested_on": "Mus musculus", "experiment": "Toxicity in athymic nude/beige mouse xenografted with human 786-O cells assessed as mild spasm at 0.16 mg/kg, ip qd after 24 days", "format": "organism-based, 786-0", "conditions": "in vivo, 576 h"}, "[8]": {"molecular_target": "Proto-oncogene tyrosine-protein kinase receptor Ret (Homo sapiens) (UniProt P07949)", "experiment": "Inhibition of human recombinant RET assessed as residual activity at 10 uM after 1 hr by qPCR analysis relative to control"}, "[9]": {"molecular_target": "Angiopoietin-1 receptor (Homo sapiens) (UniProt Q02763)", "experiment": "Inhibition of human recombinant TIE2 assessed as residual activity at 10 uM after 1 hr by qPCR analysis relative to control"}, "786-0": {"tested_on": "786-0", "experiment": "Antitumor activity against human 786-0 cells xenografted in athymic nude/beige mouse assessed as reduction in tumor mass at 0.16 mg/kg, ip qd after 24 days", "format": "functional, organism-based"}, "[10]": {"molecular_target": "Mitogen-activated protein kinase kinase kinase 4 (Homo sapiens) (UniProt Q9Y6R4)", "experiment": "Inhibition of human recombinant MAP3K4 assessed as residual activity at 10 uM after 1 hr by qPCR analysis relative to control"}, "[11]": {"molecular_target": "Phosphatidylinositol 4,5-bisphosphate 3-kinase catalytic subunit gamma isoform (Homo sapiens) (UniProt P48736)", "experiment": "Inhibition of human recombinant PIK3CG assessed as residual activity at 10 uM after 1 hr by qPCR analysis relative to control"}, "[12]": {"tested_on": "Tyrosine-protein kinase ABL1 (Homo sapiens), P00519 [E255K]", "experiment": "Inhibition of human recombinant phosphorylated ABL1 E255K mutant assessed as residual activity at 10 uM after 1 hr by qPCR analysis relative to control"}, "[13]": {"molecular_target": "Tyrosine-protein kinase ZAP-70 (Homo sapiens) (UniProt P43403)", "experiment": "Inhibition of human recombinant ZAP70 assessed as residual activity at 10 uM after 1 hr by qPCR analysis relative to control"}, "[14]": {"molecular_target": "Casein kinase I isoform delta (Homo sapiens) (UniProt P48730)", "experiment": "Inhibition of human recombinant CSNK1D assessed as residual activity at 10 uM after 1 hr by qPCR analysis relative to control"}, "[15]": {"molecular_target": "Tyrosine-protein kinase ABL1 (Homo sapiens) (UniProt P00519)", "experiment": "Inhibition of human recombinant non-phosphorylated ABL1 assessed as residual activity at 10 uM after 1 hr by qPCR analysis relative to control"}, "[16]": {"molecular_target": "Receptor tyrosine-protein kinase erbB-4 (Homo sapiens) (UniProt Q15303)", "experiment": "Inhibition of human recombinant ERBB4 assessed as residual activity at 10 uM after 1 hr by qPCR analysis relative to control"}, "[17]": {"molecular_target": "SRSF protein kinase 3 (Homo sapiens) (UniProt Q9UPE1)", "experiment": "Inhibition of human recombinant SRPK3 assessed as residual activity at 10 uM after 1 hr by qPCR analysis relative to control"}, "[18]": {"molecular_target": "Insulin-like growth factor 1 receptor (Homo sapiens) (UniProt P08069)", "sequence (P08069 31-736 limits assumed)": "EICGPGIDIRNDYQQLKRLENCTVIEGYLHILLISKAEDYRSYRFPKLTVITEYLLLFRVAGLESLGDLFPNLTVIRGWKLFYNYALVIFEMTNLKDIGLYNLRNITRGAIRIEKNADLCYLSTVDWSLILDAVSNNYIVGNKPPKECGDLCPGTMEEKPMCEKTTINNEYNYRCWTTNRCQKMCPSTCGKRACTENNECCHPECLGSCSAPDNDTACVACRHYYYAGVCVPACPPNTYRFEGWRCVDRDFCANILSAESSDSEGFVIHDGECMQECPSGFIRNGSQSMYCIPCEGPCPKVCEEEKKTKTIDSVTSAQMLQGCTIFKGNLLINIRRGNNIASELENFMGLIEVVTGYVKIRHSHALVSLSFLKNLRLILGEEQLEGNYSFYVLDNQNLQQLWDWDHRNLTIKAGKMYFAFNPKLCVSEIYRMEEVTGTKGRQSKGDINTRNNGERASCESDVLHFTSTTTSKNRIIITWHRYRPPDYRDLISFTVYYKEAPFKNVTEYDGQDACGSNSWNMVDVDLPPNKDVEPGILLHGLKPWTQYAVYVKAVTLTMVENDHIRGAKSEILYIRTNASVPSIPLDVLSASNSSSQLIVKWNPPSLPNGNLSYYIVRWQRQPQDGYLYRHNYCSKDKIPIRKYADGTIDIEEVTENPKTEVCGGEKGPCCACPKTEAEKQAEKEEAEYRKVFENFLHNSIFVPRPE", "sequence (P08069 741-1367 limits assumed)": "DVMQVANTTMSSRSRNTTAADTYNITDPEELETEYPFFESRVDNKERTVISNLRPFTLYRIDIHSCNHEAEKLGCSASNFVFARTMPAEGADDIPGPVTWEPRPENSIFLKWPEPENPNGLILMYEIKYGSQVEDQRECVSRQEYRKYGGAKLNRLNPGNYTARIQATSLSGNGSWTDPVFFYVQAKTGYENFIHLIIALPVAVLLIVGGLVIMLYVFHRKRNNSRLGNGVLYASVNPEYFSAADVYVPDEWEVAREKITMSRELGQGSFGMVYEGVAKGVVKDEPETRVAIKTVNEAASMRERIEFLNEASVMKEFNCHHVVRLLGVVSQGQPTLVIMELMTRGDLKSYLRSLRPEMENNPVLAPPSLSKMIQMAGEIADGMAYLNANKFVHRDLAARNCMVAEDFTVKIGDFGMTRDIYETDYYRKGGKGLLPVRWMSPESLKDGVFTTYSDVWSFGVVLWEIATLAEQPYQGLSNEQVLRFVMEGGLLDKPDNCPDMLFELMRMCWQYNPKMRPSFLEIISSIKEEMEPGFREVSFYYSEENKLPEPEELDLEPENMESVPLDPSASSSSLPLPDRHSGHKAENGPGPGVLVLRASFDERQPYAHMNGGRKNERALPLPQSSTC", "experiment": "Inhibition of human recombinant IGF1R assessed as residual activity at 10 uM after 1 hr by qPCR analysis relative to control"}, "[19]": {"molecular_target": "Serine/threonine-protein kinase pim-2 (Homo sapiens) (UniProt Q9P1W9)", "experiment": "Inhibition of human recombinant PIM2 assessed as residual activity at 10 uM after 1 hr by qPCR analysis relative to control"}, "[20]": {"molecular_target": "Serine/threonine-protein kinase RIO2 (Homo sapiens) (UniProt Q9BVS4)", "sequence (Q9BVS4 whole entry, looked up)": "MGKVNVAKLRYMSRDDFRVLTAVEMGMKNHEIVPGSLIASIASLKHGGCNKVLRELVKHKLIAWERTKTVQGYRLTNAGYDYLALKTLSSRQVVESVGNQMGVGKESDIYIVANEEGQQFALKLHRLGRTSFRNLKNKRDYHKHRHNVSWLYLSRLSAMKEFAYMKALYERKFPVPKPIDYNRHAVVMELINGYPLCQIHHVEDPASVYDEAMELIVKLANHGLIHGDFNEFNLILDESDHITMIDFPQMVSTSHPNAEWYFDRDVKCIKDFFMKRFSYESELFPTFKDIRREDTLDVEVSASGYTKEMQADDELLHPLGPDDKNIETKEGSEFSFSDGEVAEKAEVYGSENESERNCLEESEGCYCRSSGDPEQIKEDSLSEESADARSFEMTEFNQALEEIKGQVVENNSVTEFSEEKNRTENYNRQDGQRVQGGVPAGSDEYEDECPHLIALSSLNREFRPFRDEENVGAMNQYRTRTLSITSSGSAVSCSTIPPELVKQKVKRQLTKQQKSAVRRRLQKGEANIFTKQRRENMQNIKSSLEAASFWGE", "experiment": "Inhibition of human recombinant RIOK2 assessed as residual activity at 10 uM after 1 hr by qPCR analysis relative to control"}, "[21]": {"molecular_target": "Fibroblast growth factor receptor 2 (Homo sapiens) (UniProt P21802)", "sequence (P21802 22-821 limits assumed)": "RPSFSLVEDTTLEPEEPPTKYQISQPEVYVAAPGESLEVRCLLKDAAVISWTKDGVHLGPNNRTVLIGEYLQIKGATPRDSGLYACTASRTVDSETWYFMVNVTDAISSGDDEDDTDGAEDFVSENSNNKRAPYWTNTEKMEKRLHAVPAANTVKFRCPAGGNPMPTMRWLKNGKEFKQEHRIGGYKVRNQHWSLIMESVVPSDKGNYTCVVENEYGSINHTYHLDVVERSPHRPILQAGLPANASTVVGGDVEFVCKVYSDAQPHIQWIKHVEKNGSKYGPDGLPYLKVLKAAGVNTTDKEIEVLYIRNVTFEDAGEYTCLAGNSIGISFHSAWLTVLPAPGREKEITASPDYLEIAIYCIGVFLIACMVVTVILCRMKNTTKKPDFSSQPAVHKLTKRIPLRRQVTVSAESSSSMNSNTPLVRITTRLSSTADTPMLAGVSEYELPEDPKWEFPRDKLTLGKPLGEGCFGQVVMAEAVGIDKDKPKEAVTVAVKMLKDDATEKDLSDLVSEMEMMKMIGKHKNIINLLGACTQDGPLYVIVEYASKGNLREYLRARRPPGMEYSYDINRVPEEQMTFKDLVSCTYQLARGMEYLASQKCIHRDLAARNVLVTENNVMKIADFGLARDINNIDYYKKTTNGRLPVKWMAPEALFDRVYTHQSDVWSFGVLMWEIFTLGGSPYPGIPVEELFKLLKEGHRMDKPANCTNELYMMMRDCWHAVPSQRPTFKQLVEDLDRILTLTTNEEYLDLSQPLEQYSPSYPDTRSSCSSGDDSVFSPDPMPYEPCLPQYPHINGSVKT", "experiment": "Inhibition of human recombinant FGFR2 assessed as residual activity at 10 uM after 1 hr by qPCR analysis relative to control"}, "[22]": {"molecular_target": "Serine/threonine-protein kinase DCLK1 (Homo sapiens) (UniProt O15075)", "experiment": "Inhibition of human recombinant DCAMKL1 assessed as residual activity at 10 uM after 1 hr by qPCR analysis relative to control"}, "[23]": {"molecular_target": "Protein kinase C epsilon type (Homo sapiens) (UniProt Q02156)", "sequence (Q02156 whole entry)": "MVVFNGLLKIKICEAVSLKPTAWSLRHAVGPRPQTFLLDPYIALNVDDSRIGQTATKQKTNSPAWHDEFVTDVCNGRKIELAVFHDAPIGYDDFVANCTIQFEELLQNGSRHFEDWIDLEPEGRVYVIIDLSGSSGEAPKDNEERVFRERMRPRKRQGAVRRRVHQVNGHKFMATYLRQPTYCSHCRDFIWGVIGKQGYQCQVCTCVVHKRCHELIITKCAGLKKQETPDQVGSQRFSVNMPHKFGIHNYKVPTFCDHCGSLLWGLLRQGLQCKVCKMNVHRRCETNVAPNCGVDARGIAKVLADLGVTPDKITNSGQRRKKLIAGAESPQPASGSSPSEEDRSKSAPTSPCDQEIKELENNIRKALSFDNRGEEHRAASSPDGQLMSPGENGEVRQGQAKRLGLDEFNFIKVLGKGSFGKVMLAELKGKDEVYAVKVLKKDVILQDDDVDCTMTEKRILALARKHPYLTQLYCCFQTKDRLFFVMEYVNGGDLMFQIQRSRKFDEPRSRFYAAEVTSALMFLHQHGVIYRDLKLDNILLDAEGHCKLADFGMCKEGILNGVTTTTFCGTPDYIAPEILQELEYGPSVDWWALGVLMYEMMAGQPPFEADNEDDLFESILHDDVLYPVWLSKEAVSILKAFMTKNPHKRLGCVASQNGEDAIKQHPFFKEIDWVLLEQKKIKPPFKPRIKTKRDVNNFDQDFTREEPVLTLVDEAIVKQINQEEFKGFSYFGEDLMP", "experiment": "Inhibition of human recombinant PRKCE assessed as residual activity at 10 uM after 1 hr by qPCR analysis relative to control"}, "Mus musculus [24]": {"tested_on": "Mus musculus", "experiment": "Toxicity in athymic nude/beige mouse xenografted with human 786-O cells assessed as dark circles around eyes at 0.16 mg/kg, ip qd after 24 days", "format": "organism-based, 786-0", "conditions": "in vivo, 576 h"}, "[25]": {"molecular_target": "Tyrosine-protein kinase JAK3 (Homo sapiens) (UniProt P52333)", "experiment": "Inhibition of human recombinant JAK3 (JH1 domain-catalytic) assessed as residual activity at 10 uM after 1 hr by qPCR analysis relative to control"}, "[26]": {"molecular_target": "Ribosomal protein S6 kinase alpha-3 (Homo sapiens) (UniProt P51812)", "experiment": "Inhibition of human recombinant N-terminal RSK2 kinase domain 1 assessed as residual activity at 10 uM after 1 hr by qPCR analysis relative to control"}, "[27]": {"molecular_target": "Inhibitor of nuclear factor kappa-B kinase subunit beta (Homo sapiens) (UniProt O14920)", "experiment": "Inhibition of human recombinant IKKbeta assessed as residual activity at 10 uM after 1 hr by qPCR analysis relative to control"}, "[28]": {"molecular_target": "TGF-beta receptor type-1 (Homo sapiens) (UniProt P36897)", "experiment": "Inhibition of human recombinant TGFBR1 assessed as residual activity at 10 uM after 1 hr by qPCR analysis relative to control"}, "[29]": {"molecular_target": "Non-receptor tyrosine-protein kinase TYK2 (Homo sapiens) (UniProt P29597)", "sequence (P29597 whole entry, the tested form may be a part)": "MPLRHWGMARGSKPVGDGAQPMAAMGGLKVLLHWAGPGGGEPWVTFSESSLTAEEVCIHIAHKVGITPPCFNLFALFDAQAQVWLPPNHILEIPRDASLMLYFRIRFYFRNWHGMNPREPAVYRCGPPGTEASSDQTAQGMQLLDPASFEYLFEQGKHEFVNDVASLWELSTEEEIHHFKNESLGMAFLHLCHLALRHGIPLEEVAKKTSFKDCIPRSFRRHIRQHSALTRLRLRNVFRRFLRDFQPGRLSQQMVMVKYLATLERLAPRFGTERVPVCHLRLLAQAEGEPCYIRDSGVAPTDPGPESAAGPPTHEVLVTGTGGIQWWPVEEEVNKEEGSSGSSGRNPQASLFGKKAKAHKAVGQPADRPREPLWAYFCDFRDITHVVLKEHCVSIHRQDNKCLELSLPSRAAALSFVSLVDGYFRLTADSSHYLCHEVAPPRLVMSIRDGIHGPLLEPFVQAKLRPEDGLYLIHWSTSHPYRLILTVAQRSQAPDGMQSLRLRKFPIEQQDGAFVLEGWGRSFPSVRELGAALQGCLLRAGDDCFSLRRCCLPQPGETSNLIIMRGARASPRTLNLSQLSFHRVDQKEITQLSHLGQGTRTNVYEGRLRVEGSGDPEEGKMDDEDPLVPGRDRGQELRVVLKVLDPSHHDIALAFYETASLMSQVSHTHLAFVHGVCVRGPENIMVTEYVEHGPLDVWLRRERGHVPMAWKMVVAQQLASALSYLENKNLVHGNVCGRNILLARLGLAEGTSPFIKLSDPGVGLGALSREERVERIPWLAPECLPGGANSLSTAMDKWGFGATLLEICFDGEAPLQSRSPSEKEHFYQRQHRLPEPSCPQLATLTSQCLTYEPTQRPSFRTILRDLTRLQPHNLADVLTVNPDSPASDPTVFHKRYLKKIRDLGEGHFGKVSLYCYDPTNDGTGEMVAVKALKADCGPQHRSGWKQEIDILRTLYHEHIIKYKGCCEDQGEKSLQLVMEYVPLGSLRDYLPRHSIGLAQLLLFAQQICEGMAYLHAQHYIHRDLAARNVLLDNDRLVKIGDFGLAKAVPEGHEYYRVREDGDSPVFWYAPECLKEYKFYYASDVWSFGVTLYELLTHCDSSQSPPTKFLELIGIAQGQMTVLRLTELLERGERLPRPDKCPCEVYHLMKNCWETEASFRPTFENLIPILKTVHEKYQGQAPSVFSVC", "experiment": "Inhibition of human recombinant TYK2 (JH1 domain-catalytic) assessed as residual activity at 10 uM after 1 hr by qPCR analysis relative to control"}, "[30]": {"molecular_target": "Focal adhesion kinase 1 (Homo sapiens) (UniProt Q05397)", "experiment": "Inhibition of human recombinant FAK assessed as residual activity at 10 uM after 1 hr by qPCR analysis relative to control"}}, "note": "Calls of active or inactive are those of the source. The rule behind the calls is not given here.", "data": [{"smiles": "Cc1c(Cl)cccc1NC(=O)c1sc2nc3c(cc2c1N)C(=O)CC3", "values": [{"measurement": "Activity", "setting": "[1]", "value": 92, "unit": "%"}, {"measurement": "Activity", "setting": "[2]", "value": 100, "unit": "%"}, {"measurement": "Activity", "setting": "[3]", "value": 99, "unit": "%"}, {"measurement": "Activity", "setting": "[4]", "value": 100, "unit": "%"}, {"measurement": "Activity", "setting": "[5]", "value": 96, "unit": "%"}, {"measurement": "Activity", "setting": "[6]", "value": 93, "unit": "%"}, {"measurement": "Activity", "setting": "Mus musculus [7]", "value": "Toxic"}, {"measurement": "Activity", "setting": "[8]", "value": 100, "unit": "%"}, {"measurement": "Activity", "setting": "[9]", "value": 100, "unit": "%"}, {"measurement": "Activity", "setting": "786-0", "value": "Active"}, {"measurement": "Activity", "setting": "[10]", "value": 96, "unit": "%"}, {"measurement": "Activity", "setting": "[11]", "value": 100, "unit": "%"}, {"measurement": "Activity", "setting": "[12]", "value": 100, "unit": "%"}, {"measurement": "Activity", "setting": "[13]", "value": 95, "unit": "%"}, {"measurement": "Activity", "setting": "[14]", "value": 100, "unit": "%"}, {"measurement": "Activity", "setting": "[15]", "value": 98, "unit": "%"}, {"measurement": "Activity", "setting": "[16]", "value": 100, "unit": "%"}, {"measurement": "Activity", "setting": "[17]", "value": 100, "unit": "%"}, {"measurement": "Activity", "setting": "[18]", "value": 97, "unit": "%"}, {"measurement": "Activity", "setting": "[19]", "value": 80, "unit": "%"}, {"measurement": "Activity", "setting": "[20]", "value": 43, "unit": "%"}, {"measurement": "Activity", "setting": "[21]", "value": 100, "unit": "%"}, {"measurement": "Activity", "setting": "[22]", "value": 100, "unit": "%"}, {"measurement": "Activity", "setting": "[23]", "value": 100, "unit": "%"}, {"measurement": "Activity", "setting": "Mus musculus [24]", "value": "Toxic"}, {"measurement": "Activity", "setting": "[25]", "value": 100, "unit": "%"}, {"measurement": "Activity", "setting": "[26]", "value": 94, "unit": "%"}, {"measurement": "Activity", "setting": "[27]", "value": 100, "unit": "%"}, {"measurement": "Activity", "setting": "[28]", "value": 100, "unit": "%"}, {"measurement": "Activity", "setting": "[29]", "value": 94, "unit": "%"}, {"measurement": "Activity", "setting": "[30]", "value": 100, "unit": "%"}]}]}
